Data set [1] can be described thus: Selectivity index, ratio of CC50 for dog MDCK cells to EC50 for antiviral activity against influenza strain A/Aichi/ 2/1968 (H3N2) infected in MDCK cells. Conditions: read-out: Selectivity Index. It is filed as toxicity, cell-based.
The test system of data set [2] is Influenza A virus. Description: Antiviral activity against influenza strain A/Aichi/ 2/1968 (H3N2) infected in MDCK cells assessed as reduction of virus-induced cytopathic effect measured after 2 days incubation. It is filed as functional, organism-based. Conditions: 48 h.
Data set [3] is described as follows: Selectivity index, ratio of CC50 for dog MDCK cells to EC50 for antiviral activity against influenza strain A/WSN/1933 (H1N1) infected in MDCK cells. The class given is toxicity, cell-based. Conditions: read-out: Selectivity Index.
Data set [4] deals with Influenza A virus. Description: Antiviral activity against influenza strain A/WSN/1933 (H1N1) infected in MDCK cells assessed as reduction of virus-induced cytopathic effect measured after 2 days incubation. Conditions: 48 h. The class given is functional, organism-based.
A short description of data set [5]: Cytotoxicity against dog MDCK cells assessed as cell viability measured after 48 hrs by CCK-8 assay. The class given is toxicity, cell-based, Canis lupus familiaris.
A short description of data set [6]: Metabolic stability in mouse liver microsomes assessed as intrinsic clearance measured up to 60 mins by LC-MS/MS analysis. It is filed as ADME, Microsome. Conditions: read-out: CLH.
A short description of data set [7]: Metabolic stability in human liver microsomes assessed as intrinsic clearance measured up to 60 mins by LC-MS/MS analysis. It is filed as ADME, Microsome. Conditions: read-out: CLH.
Data set [8] can be described thus: Metabolic stability in mouse liver microsomes assessed as half life measured up to 60 mins by LC-MS/MS analysis. The class given is ADME, Microsome.
The nature of data set [9]: Metabolic stability in human liver microsomes assessed as half life measured up to 60 mins by LC-MS/MS analysis. The class given is ADME, Microsome.

The values below come from ChEMBL document CHEMBL6078703, “Discovery of Novel Thiophene-Based Baloxavir Derivatives as Potent Cap-Dependent Endonuclease Inhibitors for Influenza Treatment” (J Med Chem, 2024).

For `Cc1ccc([C@@H](c2cccs2)N2[C@@H]3COCCN3C(=O)c3c(O)c(=O)ccn32)cc1C`, the selectivity ratio in data set [1] is 15600; in data set [3], 4190. Also, the results for the half-maximal effective concentration (EC50) in the data set with Influenza A virus [2] and with Influenza A virus [4] were 1.79 nM and 6.67 nM, respectively. In data set [5], the CC50 at 48 h was found to be 28000 nM.
Turning to `O=C1c2c(O)c(=O)ccn2N([C@@H](c2ccc(F)c(F)c2)c2cc3ccccc3s2)[C@@H]2COCCN12`, the selectivity ratio in [1] is > 8360; in [3] it was > 1180. In addition, the EC50 with Influenza A virus [2] came to 5.98 nM; in the data set on Influenza A virus [4], 42.4 nM. The 50% cytotoxic concentration (CC50) at 48 h in [5] is > 50000 nM.
In the case of `O=C1c2c(O)c(=O)ccn2N([C@@H](c2ccc(F)c(F)c2)c2ccc(Cl)s2)[C@@H]2COCCN12`, the selectivity ratio in data set [1] turned out to be 373; in [3] it was 663. Besides, the EC50 in the data set with Influenza A virus [2] was found to be 51.9 nM; in the data set with Influenza A virus [4], 29.2 nM. Further, in [5], the half-maximal cytotoxic concentration (CC50) at 48 h stood at 19400 nM.
In the case of `O=C1c2c(O)c(=O)ccn2N([C@@H](c2ccc(Cl)c(Cl)c2)c2cccs2)[C@@H]2COCCN12`, the selectivity ratio in data set [1] was determined as 539; in data set [3], 729. For the same compound, the EC50 in the data set on Influenza A virus [2] turned out to be 60.6 nM; with Influenza A virus [4], 44.8 nM. In addition, the 50% cytotoxic concentration (CC50) at 48 h in data set [5] is 32600 nM.
For `O=C(O)Cc1ccccc1Nc1c(Cl)cccc1Cl` [DICLOFENAC], the CLint scaled in data set [6] was found to be 136 mL/min/kg; in [7], 221 mL/min/kg.
With `O=C1c2c(O)c(=O)ccn2N([C@@H](c2cccs2)c2cc(F)c(F)c(F)c2F)[C@@H]2COCCN12`, the selectivity ratio was > 6430 in data set [1] and > 8860 in data set [3]. In addition, the concentration for a half-maximal effect (EC50) in the data set on Influenza A virus [2] stood at 7.78 nM; with Influenza A virus [4], 5.64 nM. Moreover, the CC50 at 48 h in data set [5] was > 50000 nM.
Take `O=C1c2c(O)c(=O)ccn2N([C@H](c2ccc(Cl)c(Cl)c2)c2cccs2)[C@@H]2COCCN12`: the selectivity ratio in data set [1] worked out at 931; in [3], 215. Moreover, the half-maximal effective concentration (EC50) was 13 nM in the data set on Influenza A virus [2] and 56.2 nM with Influenza A virus [4]. In data set [5], the CC50 at 48 h was 12100 nM.
`O=C1c2c(O)c(=O)ccn2N([C@H](c2ccc(F)c(F)c2)c2cccs2)[C@@H]2COCCN12`: the half-life came out at 7.7 h in data set [8] and 4.45 h in data set [9]. The selectivity ratio worked out at 8200 in data set [1] and 3140 in [3]. Besides, the CLint scaled in data set [6] is 11.9 mL/min/kg; in data set [7], 4.68 mL/min/kg. The concentration for a half-maximal effect (EC50) came to 3.08 nM in the data set with Influenza A virus [2] and 8.04 nM with Influenza A virus [4]. Besides, in data set [5], the CC50 at 48 h amounted to 25200 nM.
`Cc1ccc([C@H](c2cccs2)N2[C@@H]3COCCN3C(=O)c3c(O)c(=O)ccn32)cc1C`: the selectivity ratio in data set [1] is 2530; in [3], 429. Besides, the concentration for a half-maximal effect (EC50) in the data set on Influenza A virus [2] came to 8.11 nM; with Influenza A virus [4], 47.8 nM. Further, in data set [5], the CC50 at 48 h was determined as 20500 nM.
In the same order, the values of `O=C1c2c(O)c(=O)ccn2N([C@@H](c2cc(F)c(F)c(F)c2)c2cccs2)[C@@H]2COCCN12` are > 9210, > 5350, 5.43 nM, 9.34 nM and > 50000 nM.
In the case of `O=C1c2c(O)c(=O)ccn2N([C@@H](c2ccccc2)c2cccs2)[C@@H]2COCCN12`, the selectivity ratio in data set [1] was > 2300; in [3], > 1260. Also, the EC50 was determined as 21.8 nM in the data set with Influenza A virus [2] and 39.8 nM with Influenza A virus [4]. Moreover, the CC50 at 48 h in [5] is > 50000 nM.
For the compound `O=C1c2c(O)c(=O)ccn2N([C@H](c2ccc(F)c(F)c2)c2ccc(Br)s2)[C@@H]2COCCN12`, the selectivity ratio in [1] is 613; in [3], 353. The concentration for a half-maximal effect (EC50) in the data set on Influenza A virus [2] came to 28.3 nM; in the data set with Influenza A virus [4], 49.1 nM. In [5], the CC50 at 48 h came to 17300 nM.
`O=C1c2c(O)c(=O)ccn2N([C@H](c2ccc3ccccc3c2)c2cccs2)[C@@H]2COCCN12`: the results for the EC50 in the data set on Influenza A virus [2] and in the data set with Influenza A virus [4] were 76.3 nM and 22.8 nM, respectively. The selectivity ratio in data set [3] is 752. Moreover, the CC50 at 48 h in data set [5] came out at 17200 nM.
Take `O=C1c2c(O)c(=O)ccn2N([C@H](c2ccc(F)c(F)c2)c2ccc(Cl)s2)[C@@H]2COCCN12`: the values for the selectivity ratio in [1] and in [3] were 783 and 1510, respectively. In addition, the EC50 in the data set with Influenza A virus [2] was 30.8 nM; in the data set with Influenza A virus [4] it was 15.9 nM. Moreover, in data set [5], the CC50 at 48 h turned out to be 24100 nM.
`O=C1c2c(O)c(=O)ccn2N([C@H](c2ccccc2)c2cccs2)[C@@H]2COCCN12`: the selectivity ratio in [1] was > 1070; in [3], > 1370. Further, the results for the EC50 with Influenza A virus [2] and in the data set with Influenza A virus [4] were 46.8 nM and 36.4 nM, respectively. For the same compound, in [5], the 50% cytotoxic concentration (CC50) at 48 h was > 50000 nM.
With `O=C1c2c(O)c(=O)ccn2N([C@@H](c2ccc(F)c(F)c2)c2ccc(Br)s2)[C@@H]2COCCN12`, the selectivity ratio was 623 in [1] and 652 in data set [3]. For the same compound, the EC50 turned out to be 31.6 nM in the data set with Influenza A virus [2] and 30.2 nM in the data set with Influenza A virus [4]. For the same compound, the CC50 at 48 h in data set [5] is 19700 nM.
Regarding `O=C1c2c(O)c(=O)ccn2N([C@H](c2cc(F)c(F)c(F)c2)c2cccs2)[C@@H]2COCCN12`, the selectivity ratio is 1190 in data set [1] and 13600 in data set [3]. Also, the EC50 with Influenza A virus [2] amounted to 21.9 nM; in the data set on Influenza A virus [4] it was 1.91 nM. For the same compound, in data set [5], the 50% cytotoxic concentration (CC50) at 48 h came out at 26000 nM.
For `O=C1c2c(O)c(=O)ccn2N([C@H](c2ccc(Br)c(Br)c2)c2cccs2)[C@@H]2COCCN12` the same measures were 1410, 1540, 17.6 nM, 16.2 nM and 24900 nM.
With `O=C1c2c(O)c(=O)ccn2N([C@H](c2cccc(F)c2)c2cccs2)[C@@H]2COCCN12`, the values for the selectivity ratio in [1] and in data set [3] were 1320 and 9840, respectively. Besides, the values for the EC50 in the data set on Influenza A virus [2] and with Influenza A virus [4] were 26 nM and 3.49 nM, respectively. The half-maximal cytotoxic concentration (CC50) at 48 h in data set [5] turned out to be 34300 nM.
Take `O=C1c2c(O)c(=O)ccn2N([C@H](c2cccs2)c2cc(F)c(F)c(F)c2F)[C@@H]2COCCN12`: the selectivity ratio in data set [1] was > 3630; in data set [3], > 4020. The results for the concentration giving a half-maximal response (EC50) in the data set on Influenza A virus [2] and in the data set on Influenza A virus [4] were 13.8 nM and 12.4 nM, respectively. In addition, the 50% cytotoxic concentration (CC50) at 48 h in data set [5] is > 50000 nM.
Regarding `O=C1c2c(O)c(=O)ccn2N([C@@H](c2ccc(F)c(F)c2)c2ccc(-c3ccccc3)s2)[C@@H]2COCCN12`, the selectivity ratio turned out to be 3580 in [1] and 1100 in [3]. For the same compound, the concentration for a half-maximal effect (EC50) with Influenza A virus [2] stood at 11.1 nM; in the data set with Influenza A virus [4], 36.2 nM. Also, the half-maximal cytotoxic concentration (CC50) at 48 h in data set [5] was 39800 nM.
With `O=C1c2c(O)c(=O)ccn2N([C@H](c2ccc(F)cc2)c2cccs2)[C@@H]2COCCN12`, in data set [3], the selectivity ratio came to 8390. Moreover, the EC50 in the data set with Influenza A virus [4] stood at 3.19 nM.
As for `O=C1c2c(O)c(=O)ccn2N([C@@H](c2ccc3ccccc3c2)c2cccs2)[C@@H]2COCCN12`, the selectivity ratio was 758 in data set [1] and 960 in data set [3]. Besides, the values for the EC50 with Influenza A virus [2] and with Influenza A virus [4] were 53.6 nM and 42.3 nM, respectively. Moreover, the CC50 at 48 h in [5] worked out at 40600 nM.
For the compound `O=C1c2c(O)c(=O)ccn2N([C@@H](c2ccc(Br)c(Br)c2)c2cccs2)[C@@H]2COCCN12`, the selectivity ratio in [1] was > 7250; in data set [3], > 1400. Moreover, the EC50 with Influenza A virus [2] was 6.9 nM; in the data set on Influenza A virus [4], 35.6 nM. Moreover, the cytotoxic concentration (CC50) at 48 h in [5] is > 50000 nM.
As for `O=C1c2c(O)c(=O)ccn2N([C@H](c2ccc(F)c(F)c2)c2ccc(-c3ccccc3)s2)[C@@H]2COCCN12`, the selectivity ratio in data set [1] was found to be 12900; in data set [3] it was 2380. Further, the EC50 in the data set on Influenza A virus [2] amounted to 3.75 nM; in the data set with Influenza A virus [4] it was 20.4 nM. In data set [5], the 50% cytotoxic concentration (CC50) at 48 h turned out to be 48500 nM.
With `O=C1c2c(O)c(=O)ccn2N([C@@H](c2ccc(F)cc2)c2cccs2)[C@@H]2COCCN12`, the half-life in data set [8] stood at 23.1 h; in data set [9] it was 12.8 h. Moreover, the values for the selectivity ratio in data set [1] and in data set [3] were 22800 and 7440, respectively. In addition, the CLint scaled in data set [6] amounted to 3.96 mL/min/kg; in [7], 1.62 mL/min/kg. The values for the EC50 in the data set on Influenza A virus [2] and with Influenza A virus [4] were 1.65 nM and 5.06 nM, respectively. In addition, in data set [5], the CC50 at 48 h worked out at 37600 nM.
On to `O=C1c2c(O)c(=O)ccn2N([C@H](c2ccc(F)c(F)c2)c2cc3ccccc3s2)[C@@H]2COCCN12`, for which the values for the selectivity ratio in data set [1] and in data set [3] were > 2460 and > 2400, respectively. For the same compound, the EC50 in the data set on Influenza A virus [2] was determined as 20.3 nM; in the data set on Influenza A virus [4], 20.9 nM. The 50% cytotoxic concentration (CC50) at 48 h in data set [5] is > 50000 nM.
As to `O=C1c2c(O)c(=O)ccn2N([C@@H](c2cccc(F)c2)c2cccs2)[C@@H]2COCCN12`, the selectivity ratio in [1] is > 3290; in data set [3], > 9020. The figures for the concentration for a half-maximal effect (EC50) in the data set on Influenza A virus [2] and in the data set on Influenza A virus [4] were 15.2 nM and 5.54 nM, respectively. For the same compound, the CC50 at 48 h in [5] is > 50000 nM.
